Values after ≈ are worked out from the molar mass of the structure shown.
How the values were obtained:
NIH/3T3 cells = assay: Cytotoxicity on NIH/3T3 healthy cell line; type: cell-based; settings: Mus musculus, NIH3T3, 24 h incubation
Procedure: NIH/3T3 cells were incubated in Dulbecco’s modified Eagle’s medium (DMEM) (Sigma-Aldrich, St. Louis, MO), added with fetal calf serum, penicillin (100 IU/mL), streptomycin ([…]), and 7.5% NaHCO3 at 37 °C in a humidified atmosphere of 95% air and 5% CO2. NIH/3T3 cells were seeded into the 96-well plates at a density of 1 × 10^4 cells. After 24 h of incubating period, the culture media were removed, and test compounds were added. After 24 h of incubation period, colorimetric measurements were performed by a microplate reader (Biotek) at 540 nm. Inhibition % at all concentrations was determined using the formula below, and the IC50 values were calculated from a dose–response curve obtained by plotting the percentage inhibition versus the log concentration with the use of Microsoft Excel 2013.

C. glabrata ATCC 90030 = assay: Anticandidal broth microdilution (EUCAST EDef 7.1), MIC90; type: cell-based, Candida glabrata; settings: Nakaseomyces glabratus, ATCC90030, C. glabrata ATCC 90030
From the text: (§1) E. coli (ATCC 35218), E. coli (ATCC 25922), S. aureus (ATCC 6538), methicillin-resistant S. aureus (MRSA) (clinical isolate), S. typhimurium (ATCC 13311), and K. pneumoniae (NCTC 9633) cells for antibacterial effect, and C. albicans (ATCC 24433), C. glabrata (ATCC 90030), C. krusei (ATCC 6258), and C. parapsilosis (ATCC 22019) for the antifungal effect of the final compounds were used to determine the MIC90 values. The broth microdilution procedure specified in the M07-A9 document of the Clinical and Laboratory Standards Institute (CLSI) was used for antibacterial study,[55] and the EDef 7.1 document published by EUCAST was used for the antifungal study.[56] For both activity studies, the detailed procedures were explained in previous studies.[57],[58]

[1] = tested on: Klebsiella pneumoniae NCTC 9633; assay: Antibacterial broth microdilution (CLSI M07-A9), MIC90; type: cell-based; settings: NCTC9633, K. pneumoniae NCTC 9633
From the text: (§2) The broth microdilution procedure specified in the M07-A9 document of the Clinical and Laboratory Standards Institute (CLSI) was used for antibacterial study,[55] and the EDef 7.1 document published by EUCAST was used for the antifungal study.[56] For both activity studies, the detailed procedures were explained in previous studies.[57],[58]

[2] = tested on: Salmonella typhimurium ATCC 13311; assay: as above; type: cell-based; settings: Salmonella enterica; S. typhimurium ATCC 13311
From the text: as §2

[3] = tested on: Staphylococcus aureus ATCC 6538; assay: as above; type: cell-based; settings: Staphylococcus aureus, ATCC6538; S. aureus ATCC 6538; read-out: MIC90
From the text: as §2

[4] = tested on: Escherichia coli ATCC 35218; assay: as above; type: cell-based; settings: Escherichia coli, ATCC35218; E. coli ATCC 35218
From the text: as §2

E. coli ATCC 25922 = assay: as above; type: cell-based; settings: Escherichia coli, ATCC25922
From the text: as §2

[5] = tested on: methicillin-resistant S. aureus (MRSA) (clinical isolate); assay: as above; type: cell-based; settings: Staphylococcus aureus
From the text: as §2

[6] = tested on: Candida albicans ATCC 24433; assay: Anticandidal broth microdilution (EUCAST EDef 7.1), MIC90; type: cell-based; settings: Candida albicans, ATCC24433, C. albicans ATCC 24433; read-out: MIC90
From the text: as §1

[7] = tested on: Candida parapsilosis ATCC 22019; assay: as above; type: cell-based; settings: Lodderomyces parapsilosis, ATCC22019, C. parapsilosis ATCC 22019; read-out: MIC90
From the text: as §1

Candida krusei ATCC 6258 = assay: as above; type: cell-based; settings: Pichia kudriavzevii, ATCC6258, C. krusei ATCC 6258; read-out: MIC90
From the text: as §1

[8] = biological target: T1, Lanosterol 14α-demethylase (LMD, CYP51A1) (Candida glabrata, UniProt P50859); assay: LDM (CYP51A1) inhibition by LC-MS-MS quantification of ergosterol level; type: cell-based; settings: C. glabrata; for inhibition at 0.06 µg/mL: 0.06 μg/mL; for inhibition at 0.06 µg/mL / inhibition at 0.24 µg/mL / inhibition at 0.98 µg/mL: read-out: CYP51A1 Inhibition%; for inhibition at 0.24 µg/mL: 0.24 μg/mL; for inhibition at 0.98 µg/mL: 0.98 μg/mL
T1 construct: tested against Candida strains via the determination of ergosterol production; endogenous in cells; host or cells: C. glabrata (ATCC 90030)
T1 sequence (P50859 whole entry): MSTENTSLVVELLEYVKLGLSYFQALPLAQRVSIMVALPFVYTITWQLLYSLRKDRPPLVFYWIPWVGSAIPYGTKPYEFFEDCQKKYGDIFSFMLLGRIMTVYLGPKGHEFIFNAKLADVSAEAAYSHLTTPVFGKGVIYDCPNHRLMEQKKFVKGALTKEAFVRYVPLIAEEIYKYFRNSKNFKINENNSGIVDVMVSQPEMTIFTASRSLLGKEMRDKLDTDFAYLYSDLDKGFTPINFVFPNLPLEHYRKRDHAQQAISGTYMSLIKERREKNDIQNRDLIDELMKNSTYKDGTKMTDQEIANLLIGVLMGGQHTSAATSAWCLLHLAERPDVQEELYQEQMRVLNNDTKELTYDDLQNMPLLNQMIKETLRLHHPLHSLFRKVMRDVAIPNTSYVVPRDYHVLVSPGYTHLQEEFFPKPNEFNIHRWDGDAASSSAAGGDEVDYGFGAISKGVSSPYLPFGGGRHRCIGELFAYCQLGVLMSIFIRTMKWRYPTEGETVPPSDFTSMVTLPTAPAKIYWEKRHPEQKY
Procedure: (§3) The activity of the target compounds was tested against Candida strains via the determination of ergosterol production.
(§4) Ergosterol level was determined using the extract of total sterols from C. albicans (and its other species) following the method described by Breivik and Owades.[63] Quantification of the ergosterol level in this extract was carried out by the recently described method.[58],[64]−[66] According to these described studies, in the current work, compounds 4b, 4e, 4f, and 4h–m were undertaken to investigate their action mechanism. Thus, the LC-MS-MS-based method that quantifies the ergosterol level was applied. […]. Ergosterol quantity in negative control samples was regarded as 100%. All concentrations were analyzed in quadruplicate, and the results were expressed as mean ± standard deviation (SD).

[9] = biological target: T2, human aromatase enzyme (CYP19A) (Homo sapiens, UniProt P11511); assay: Aromatase (CYP19A) Inhibitor Screening Kit (Fluorometric); type: biochemical
T2 construct: purchased Bio Vision
T2 sequence (P11511 1-503): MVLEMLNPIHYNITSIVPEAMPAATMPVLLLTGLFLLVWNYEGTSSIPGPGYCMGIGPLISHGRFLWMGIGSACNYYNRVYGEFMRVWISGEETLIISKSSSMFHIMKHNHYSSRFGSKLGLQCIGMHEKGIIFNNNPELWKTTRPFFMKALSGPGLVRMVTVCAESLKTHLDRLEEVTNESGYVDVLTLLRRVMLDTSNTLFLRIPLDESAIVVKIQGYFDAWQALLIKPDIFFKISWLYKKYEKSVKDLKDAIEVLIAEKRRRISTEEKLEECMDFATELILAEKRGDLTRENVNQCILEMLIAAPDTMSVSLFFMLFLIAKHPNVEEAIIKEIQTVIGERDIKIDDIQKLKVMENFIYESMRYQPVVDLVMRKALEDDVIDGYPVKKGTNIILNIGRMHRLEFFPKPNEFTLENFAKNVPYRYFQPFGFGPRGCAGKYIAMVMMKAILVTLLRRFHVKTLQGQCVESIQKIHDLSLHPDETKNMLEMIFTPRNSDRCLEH

[10] = tested on: Lanosterol 14α-demethylase (LMD, CYP51A1); assay: LDM (CYP51A1) inhibition by LC-MS-MS quantification of ergosterol level; type: cell-based
Procedure: as §3, §4

SMILES | IC50 (NIH/3T3 cells) [µM] | MIC90 (C. glabrata ATCC 90030) [µg/mL] | melting point [°C] | MIC90 [1] [µg/mL] | MIC90 [2] [µg/mL] | MIC90 [3] [µg/mL] | MIC90 [4] [µg/mL] | MIC90 (E. coli ATCC 25922) [µg/mL] | MIC90 [5] [µg/mL] | MIC90 [6] [µg/mL] | MIC90 [7] [µg/mL] | MIC90 (Candida krusei ATCC 6258) [µg/mL] | effect on ergosterol production / LMD enzyme inhibition (in words) [8] | inhibition at 0.06 µg/mL [8] [%] | inhibition at 0.24 µg/mL [8] [%] | IC50 [9] [µM] | effect on ergosterol production / LMD enzyme inhibition (in words) ([10]; C. parapsilosis) | CYP51A1 Inhibition% ([10]; C. parapsilosis, 0.06 μg/mL) [%] | CYP51A1 Inhibition% ([10]; C. parapsilosis, 0.24 μg/mL) [%] | CYP51A1 Inhibition% ([10]; C. parapsilosis, 0.98 μg/mL) [%] | further results
COc1ccc2nc(Cl)c(/C=N/Nc3nc(-c4ccc(C#N)cc4)cs3)cc2c1 [4e] | > 1000 | < 0.06 | 240 to 242 | > 1000 | > 1000 | > 1000 | > 1000 | > 1000 | > 1000 | 3.91 (≈ 9.31 µM) | 3.91 (≈ 9.31 µM) | 62.5 (≈ 149 µM) | did not decrease the ergosterol production compared to the standard drugs | 16.7 ± 0.774 | 18.3 ± 0.785 | – | – | – | – | – | inhibition at 0.98 µg/mL [8]: 21.7 ± 0.955%
COc1ccc2nc(Cl)c(C=NNc3nc(-c4ccc(C)cc4)cs3)cc2c1 [4f] | > 1000 | < 0.06 | 194 to 196 | > 1000 | > 1000 | > 1000 | > 1000 | > 1000 | > 1000 | > 1000 | 3.91 (≈ 9.56 µM) | 3.91 (≈ 9.56 µM) | showed their anticandidal activity via LMD enzyme inhibition | 42.1 ± 1.56 | 53.8 ± 2.39 | – | – | – | – | – | inhibition at 0.98 µg/mL [8]: 65.1 ± 1.68%
COc1ccc2nc(Cl)c(/C=N/Nc3nc(-c4cccc([N+](=O)[O-])c4)cs3)cc2c1 [4i] | 8.54 ± 0.26 | 1.95 (≈ 4.43 µM) | 212 to 214 | > 1000 | > 1000 | > 1000 | > 1000 | > 1000 | > 1000 | 1.95 (≈ 4.43 µM) | 1.95 (≈ 4.43 µM) | 1.95 (≈ 4.43 µM) | – | – | – | 0.033 ± 0.001 | – | – | – | – | effect on ergosterol production / LMD enzyme inhibition (in words) ([10]; C. krusei): did not decrease the ergosterol production compared to the standard drugs; CYP51A1 Inhibition% ([10]; C. krusei, 0.06 μg/mL): 11.662 ± 0.479%; CYP51A1 Inhibition% ([10]; C. krusei, 0.24 μg/mL): 14.178 ± 0.655%; CYP51A1 Inhibition% ([10]; C. krusei, 0.98 μg/mL): 18.361 ± 0.767%
COc1ccc2nc(Cl)c(C=NNc3nc(-c4cccc(F)c4)cs3)cc2c1 [4j] | 10 ± 0.39 | > 1000 | 221 to 223 | > 1000 | > 1000 | > 1000 | > 1000 | > 1000 | > 1000 | > 1000 | < 0.06 | 62.5 (≈ 151 µM) | – | – | – | 0.047 ± 0.001 | showed their anticandidal activity via LMD enzyme inhibition | 41.867 ± 0.968 | 55.281 ± 1.174 | 63.508 ± 1.948 | –
COc1cccc(-c2csc(N/N=C/c3cc4cc(OC)ccc4nc3Cl)n2)c1 [4k] | 12 ± 0.44 | 1.95 (≈ 4.59 µM) | 217 to 220 | > 1000 | > 1000 | > 1000 | > 1000 | > 1000 | > 1000 | 1.95 (≈ 4.59 µM) | 1.95 (≈ 4.59 µM) | 1.95 (≈ 4.59 µM) | – | – | – | 0.038 ± 0.001 | did not decrease the ergosterol production compared to the standard drugs | 11.449 ± 0.518 | 15.662 ± 0.616 | 17.437 ± 0.861 | –
COc1ccc2nc(Cl)c(C=NNc3nc(-c4ccncc4)cs3)cc2c1 [4l] | > 1000 | 1.95 (≈ 4.93 µM) | 250 to 257 | > 1000 | > 1000 | > 1000 | > 1000 | > 1000 | > 1000 | 1.95 (≈ 4.93 µM) | 1.95 (≈ 4.93 µM) | > 1000 | – | – | – | 0.042 ± 0.002 | showed their anticandidal activity via LMD enzyme inhibition | 40.328 ± 1.326 | 56.137 ± 0.928 | 62.949 ± 2.626 | –

Reference: PMC9835529, “Investigation of Novel Quinoline–Thiazole Derivatives as Antimicrobial Agents: In Vitro and In Silico Approaches” (ACS Omega, 2022)
